Measured values taken from patent publication US10722597B2, “Cyclodextrin-panobinostat adduct” (MIDATECH LTD., priority 2016, dated 2020).

How the values were obtained:
[1] = system: U87MG (Glioblastoma) cell line; assay: MTT cell viability (cytotoxicity); type: cell-based; conditions: 48 or 72 hrs exposure
Method: (§1) Error bars indicate plus or minus standard deviation of triplicate samples. N=1 experimental replicate.
(§2) Cell viability was then assessed using MTT reagent.

[2] = system: HEPG2 (Hepatocellular carcinoma) cell line; assay: MTT cell viability (cytotoxicity); type: cell-based; conditions: HEPG2, 48 or 72 hrs exposure
Method: as §1, §2

[3] = Solubility of panobinostat free base in aqueous media; type: physicochemical
Method: The pH of the first aqueous solution is in the range 2.0 to 4.0, for example 2.5 to 3.5. Preferably, the pH of the first aqueous solution is about 3.0.
It is similarly insoluble in concentrated aqueous solutions of 2-hydroxypropyl-β-cyclodextrin (HP-β-CD) (450 mg/ml).

[4] = HPLC stability of 10 mM panobinostat stock solutions at room temperature; type: physicochemical
Method: Samples were diluted to allow analysis by HPLC (to avoid overloading the system). Peak areas were measured for both solutions at time 0, 100 h and 150 h post preparation. Samples were stored at room temperature over the course of the analysis. Percentage change was calculated based on the peak area and compared to analysis at time zero. One replicate was analysed and 7.2 μl was injected (equivalent to 0.25 μg on column) for each sample. The concentration of the stock solutions assessed was 10 mM. Column: Ascentis Express Peptide, ES-C18, 10 cm×4.6 mm Mobile phases: 0.1% trifluoroacetic acid (TFA) in acetonitrile (organic) and 0.1% trifluoroacetic acid in water HPLC: Agilent 1260 infinity HPLC conditions used: […]

**Q.** For 2-hydroxypropyl-β-cyclodextrin, which “Toxicity (cell viability, MTT)” value [1] is on record?
**A.** The value was “essentially non-toxic”.

**Q.** And the “Toxicity (cell viability, MTT)” value [2]?
**A.** Its value is “essentially non-toxic”.

**Q.** What does the source list for `Cc1[nH]c2ccccc2c1CCNCc1ccc(/C=C/C(=O)NO)cc1` [Panobinostat, 2-(E)-N-hydroxy-3-[4[[[2-(2-methyl-1H-indol-3-yl)ethyl]amino]methyl]phenyl]-2-propenamide]?
**A.** solubility ([3]; aqueous buffer, thermodynamic from solid, free base, citrate buffer at pH 3.0, read-out: Soluble concentration in citrate buffer): ≥ 10 mM; Solubility in citrate buffer ([3]; citrate buffer at pH 3.0): soluble; Solubility in concentrated aqueous 2-hydroxypropyl-β-cyclodextrin ([3]; free base, HP-β-CD 450 mg/ml): insoluble; Solubility in water ([3]; free base, water): poorly soluble; Decrease of Panobinostat concentration ([4]; DMSO solution, 100 hrs): 2.8%; Decrease of Panobinostat concentration ([4]; DMSO solution, 150 hrs): 4.4%; Decrease of Panobinostat concentration ([4]; citrate solution, 100 hrs): 0.4%; Decrease of Panobinostat concentration ([4]; citrate solution, 150 hrs): 1%
